Results reported in patent US20080221107A1, “Therapeutic Agents” (ASTRAZENECA AB, priority 2005, published 2008).

Tests used:
[1] = target: T1, human Melanin concentrating hormone receptor 1 (hMCHr1) (Homo sapiens, UniProt Q99705); assay: MCHr1 receptor radioligand binding (125I-MCH, membranes from CHO-K1 cells); conditions: 125I-MCH displacement, CHO-K1 membranes expressing hMCHr1, 30° C. 60 minutes; read-out: IC50 in human MCHr binding assay
T1 construct: purchased Euroscreen; host or cells: CHO-K1 cells (recombinant expression; membranes)
Procedure: Assays were performed in a 96-well plate format in a final reaction volume of 200 μl per well. […] Filters were washed with assay buffer.
Non-specific binding was subtracted from all values determined. […] Binding of compounds at various concentrations was plotted according to the equation

hERG = hERG (Homo sapiens, UniProt Q12809); assay: hERG activity (planar-array-based voltage clamp, modified Kiss et al. method); type: cell-based
Procedure: hERG testing was performed using a modified version of the method described by Kiss L, Bennett P B, Uebele V N, Koblan K S, Kane S A, Neagle B, Schroeder K. “High throughput ion-channel pharmacology: planar-array-based voltage clamp.” Assay Drug Dev Technol. 1, 127-35. (2003).

T1 sequence (Q99705 whole entry): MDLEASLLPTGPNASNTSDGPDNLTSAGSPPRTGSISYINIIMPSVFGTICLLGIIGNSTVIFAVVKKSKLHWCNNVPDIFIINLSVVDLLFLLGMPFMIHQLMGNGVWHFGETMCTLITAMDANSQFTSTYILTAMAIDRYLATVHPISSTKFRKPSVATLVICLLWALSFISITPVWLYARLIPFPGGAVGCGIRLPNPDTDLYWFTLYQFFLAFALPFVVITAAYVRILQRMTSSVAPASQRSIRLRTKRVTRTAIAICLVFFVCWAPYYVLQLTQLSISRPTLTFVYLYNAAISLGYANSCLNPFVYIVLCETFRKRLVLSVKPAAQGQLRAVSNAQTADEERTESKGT
hERG, sequence (Q12809 whole entry): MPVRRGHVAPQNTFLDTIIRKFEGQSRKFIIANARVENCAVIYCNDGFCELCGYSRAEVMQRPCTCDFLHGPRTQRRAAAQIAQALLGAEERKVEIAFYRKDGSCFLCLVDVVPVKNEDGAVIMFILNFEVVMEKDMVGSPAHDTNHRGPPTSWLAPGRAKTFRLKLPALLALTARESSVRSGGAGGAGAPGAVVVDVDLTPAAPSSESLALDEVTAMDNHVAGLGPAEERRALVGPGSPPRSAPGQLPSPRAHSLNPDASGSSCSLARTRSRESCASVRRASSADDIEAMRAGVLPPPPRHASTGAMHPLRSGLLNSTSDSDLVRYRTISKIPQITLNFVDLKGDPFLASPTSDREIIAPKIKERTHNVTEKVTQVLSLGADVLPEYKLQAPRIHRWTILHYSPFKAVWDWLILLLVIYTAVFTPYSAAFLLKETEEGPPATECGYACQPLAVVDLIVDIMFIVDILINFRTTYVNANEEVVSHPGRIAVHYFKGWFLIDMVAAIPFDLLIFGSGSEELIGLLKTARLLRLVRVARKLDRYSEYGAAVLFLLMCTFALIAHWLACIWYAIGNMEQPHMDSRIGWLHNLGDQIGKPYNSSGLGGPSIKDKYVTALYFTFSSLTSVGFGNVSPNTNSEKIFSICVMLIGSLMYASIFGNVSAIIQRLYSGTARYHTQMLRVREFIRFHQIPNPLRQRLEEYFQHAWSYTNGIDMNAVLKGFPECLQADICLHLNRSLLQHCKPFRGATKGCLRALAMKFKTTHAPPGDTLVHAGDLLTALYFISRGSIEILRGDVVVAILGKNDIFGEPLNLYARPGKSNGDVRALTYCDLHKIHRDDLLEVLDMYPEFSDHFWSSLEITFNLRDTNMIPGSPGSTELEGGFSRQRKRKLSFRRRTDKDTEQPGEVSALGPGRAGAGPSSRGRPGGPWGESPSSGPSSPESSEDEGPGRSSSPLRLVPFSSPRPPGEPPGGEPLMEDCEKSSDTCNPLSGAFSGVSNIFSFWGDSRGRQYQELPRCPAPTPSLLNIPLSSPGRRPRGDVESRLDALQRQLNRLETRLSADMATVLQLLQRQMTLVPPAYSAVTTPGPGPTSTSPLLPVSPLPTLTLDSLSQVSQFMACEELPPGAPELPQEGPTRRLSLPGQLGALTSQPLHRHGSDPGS

IC50 [1]: 11 nM
SMILES: COc1cc(-n2nnc3cc(-c4ccc(Cl)cc4)sc3c2=O)ccc1N1CC[C@@H](O)C1 [Example 1, 6-(4-Chlorophenyl)-3-{4-[(3R)-3-hydroxypyrrolidin-1-yl]-3-methoxyphenyl}thieno[3,2-d][1,2,3]triazin4(3D)-one]
IC50 (hERG): > 5000 nM
